# Experiments:
# Typhlodromus pyri = test: LR50; higher = less toxic; conditions: duration: 7 days, mortality
# Daphnia magna = conditions: chronic/long-term; duration: 21 days; reproduction
# Bibionidae = conditions: chronic/long-term; duration: 28 days; other
# Apis mellifera = conditions: acute; duration: 48 hours; oral; unspecified; mortality
# Colinus virginianus = conditions: acute, oral, mortality
structure (smiles),measurement,setting,value
CC(C)CC(C)c1sccc1NC(=O)c1cn(C)nc1C(F)(F)F (stereo unspecified) [Penthiopyrad],LR50,Typhlodromus pyri; acute,238 g/ha
same,LR50,Typhlodromus pyri; chronic/long-term,124 g/ha
same,NOAEC,Daphnia magna,471 µg/L
same,LD50,"Rattus norvegicus; acute, oral, mortality",> 2000 mg/kg
same,NOAEL,"Rattus norvegicus; chronic, body weight",54 mg/kg-day
same,NOAEC,Bibionidae,50 mg/kg
same,LD50,Apis mellifera,> 500 µg/piece
same,LD50,Colinus virginianus; diet,> 1910 mg/kg-day
same,LD50,Colinus virginianus,> 2250 mg/kg-day
same,LC50,"Tagia sp.; acute, duration: 14 days, mortality",> 1000 mg/kg
same,NOEC,"Tagia sp.; chronic/long-term, duration: 56 days, reproduction",≥ 48 mg/kg
same,LC50,"Pimephales promelas; acute, duration: 96 hours, mortality",0.29 µg/mL
same,NOAEC,"Pimephales promelas; chronic/long-term, duration: 33 days, growth",51 µg/L
same,LOAEL,"Anas platyrhynchos; reproductive, reproduction",719 mg/kg-day
same,NOAEL,"Anas platyrhynchos; reproductive, reproduction",207 mg/kg-day
same,LC50,"Anas platyrhynchos; short-term, oral, feed, no effects",> 5790 mg/kg-day
